{"source": "patent US11206830B2", "about": "“Herbicidal composition comprising glufosinate or a salt thereof and pyroxasulfone” (BASF SE, priority 2008, dated 2021)", "assay_type_in_all_cases": "in vivo", "key": {"[1]": {"test_system": "Alopecurus myosuroides (ALOMY)", "assay": "greenhouse post-emergence herbicidal activity on ALOMY", "conditions": "for inhibition at 6.25 g/ha: read-out: % activity 20 DAT, post-emergence, solo application, 6.25 g ai/ha", "from_the_text": "(§1) For the post-emergence treatment, the test plants were first grown to a height of 3 to 20 cm, depending on the plant habit, and only then treated. Here, the herbicidal compositions were suspended or emulsified in water as distribution medium and sprayed using finely distributing nozzles.\n(§2) The respective herbicides B and/or safener were formulated as 10% by weight strength suspension concentrate and introduced to the spray liquor with the amount of solvent system used for applying the active compound. Herbicides A, C and/or safener were used as commercially available formulations and introduced to the spray liquor with the amount of solvent system used for applying the active compound. In the examples, the solvent used was water.\n(§3) The test period extended over 21 days. During this time, the plants were tended, and their response to the treatments with active compound was evaluated.\n(§4) The evaluation for the damage caused by the chemical compositions was carried out using a scale from 0 to 100%, compared to the untreated control plants. Here, 0 means no damage and 100 means complete destruction of the plants.\n(§5) The value E, which is to be expected if the activity of the individual compounds is just additive, was calculated using the method of S. R. Colby (1967) “Calculating synergistic and antagonistic responses of herbicide combinations”, Weeds 15, p. 22 ff. For two component mixtures the value E was calculated by the following formula E=X+Y−(X·Y/100)\n(§6) For three component mixtures the value E was calculated by the following formula E=X+Y+Z−(XY+XZ+YZ)/100+(X·YZ/10000) where X=effect in percent using herbicide A at an application rate a; • Y=effect in percent using herbicide B at an application rate b; • Z=effect in percent using herbicide C at an application rate c; • E=expected effect (in %) of A+B at application rates a+b. or • E=expected effect (in %) of A+B+C at application rates a+b+c.\n(§7) If the value observed in this manner is higher than the value E calculated according to Colby, a synergistic effect is present.\n(§8) Tables 1 to 12 relate to the herbicidal activity of the individual actives and of their combinations in post-emergence application assessed 20 DAT."}, "[2]": {"test_system": "Digitaria sanguinalis (DIGSA)", "assay": "greenhouse post-emergence herbicidal activity on DIGSA", "from_the_text": "as §1, §2, §3, §4, §5, §6, §7, §8"}, "[3]": {"test_system": "Abutilon theophrasti (ABUTH)", "assay": "greenhouse post-emergence herbicidal activity on ABUTH", "from_the_text": "as §1, §2, §3, §4, §5, §6, §7, §8"}, "[4]": {"test_system": "Chenopodium album (CHEAL)", "assay": "greenhouse post-emergence herbicidal activity on CHEAL", "from_the_text": "as §1, §2, §3, §4, §5, §6, §7, §8"}, "[5]": {"test_system": "Polygonum convolvulus (POLCO)", "assay": "greenhouse post-emergence herbicidal activity on POLCO", "conditions": "Fallopia convolvulus, 480 h, read-out: % activity 20 DAT", "from_the_text": "as §1, §2, §3, §4, §5, §6, §7, §8"}, "[6]": {"test_system": "Lolium multiflorum (LOLMU)", "assay": "greenhouse post-emergence herbicidal activity on LOLMU", "from_the_text": "as §1, §2, §3, §4, §5, §6, §7, §8"}, "Galium aparine (GALAP)": {"test_system": "Galium aparine (GALAP)", "assay": "greenhouse post-emergence herbicidal activity on GALAP", "conditions": "Galium aparine, 480 h", "from_the_text": "as §1, §2, §3, §4, §5, §6, §7, §8"}, "Avena fatua (AVEFA)": {"test_system": "Avena fatua (AVEFA)", "assay": "greenhouse post-emergence herbicidal activity on AVEFA", "conditions": "480 h, read-out: % activity 20 DAT", "from_the_text": "as §1, §2, §3, §4, §5, §6, §7, §8"}, "[7]": {"test_system": "Matricaria inermis (MATIN)", "assay": "greenhouse post-emergence herbicidal activity on MATIN", "conditions": "for % activity 20 DAT: solo application", "from_the_text": "as §1, §2, §3, §4, §5, §6, §7, §8"}, "Sinapis arvensis (SINAR)": {"test_system": "Sinapis arvensis (SINAR)", "assay": "greenhouse post-emergence herbicidal activity on SINAR", "conditions": "solo application, 135 g ai/ha", "from_the_text": "as §1, §2, §3\nThe evaluation for the damage caused by the chemical compositions was carried out using a scale from 0 to 100%, compared to the untreated control plants. […]\nThe value E, which is to be expected if the activity of the individual compounds is just additive, was calculated using the method of S. R. Colby (1967) “Calculating synergistic and antagonistic responses of herbicide combinations”, Weeds 15, p. […] For two component mixtures the value E was calculated by the following formula E=X+Y−(X·Y/100)\nas §6, §7, §8"}, "[8]": {"conditions": "Digitaria sanguinalis, 480 h, read-out: % activity 20 DAT"}}, "data": [{"smiles": "CCc1nc2c(Cl)cc(Cl)c(-c3nn(C)c(OC(F)F)c3Br)c2o1", "note": "[Compound B]", "values": [{"measurement": "inhibition at 6.25 g/ha", "setting": "[1]; Alopecurus myosuroides, 480 h", "value": 20, "unit": "%"}, {"measurement": "inhibition at 12.5 g/ha", "setting": "[1]; Alopecurus myosuroides, 480 h, read-out: % activity 20 DAT, post-emergence, solo application, 12.5 g ai/ha", "value": 35, "unit": "%"}, {"measurement": "inhibition at 6.25 g/ha", "setting": "[2]; [8]", "value": 50, "unit": "%"}, {"measurement": "inhibition at 6.25 g/ha", "setting": "[3]; Abutilon theophrasti, 480 h, read-out: % activity 20 DAT, post-emergence, solo application, 6.25 g ai/ha", "value": 98, "unit": "%"}, {"measurement": "inhibition at 6.25 g/ha", "setting": "[4]; Chenopodium album, 480 h, read-out: % activity 20 DAT, post-emergence, solo application, 6.25 g ai/ha", "value": 85, "unit": "%"}, {"measurement": "inhibition at 6.25 g/ha", "setting": "[5]", "value": 90, "unit": "%"}]}, {"smiles": "C#CCN1C(=O)COc2cc(F)c(-n3c(=O)n(C)c(=S)n(C)c3=O)cc21", "note": "[Compound D]", "values": [{"measurement": "inhibition at 3.13 g/ha", "setting": "[1]; Alopecurus myosuroides, 480 h, read-out: % activity 20 DAT, post-emergence, solo application, 3.13 g ai/ha", "value": 30, "unit": "%"}, {"measurement": "inhibition at 6.25 g/ha", "setting": "[1]; Alopecurus myosuroides, 480 h", "value": 40, "unit": "%"}, {"measurement": "inhibition at 3.13 g/ha", "setting": "[2]; [8]", "value": 35, "unit": "%"}, {"measurement": "inhibition at 3.13 g/ha", "setting": "[6]; Lolium multiflorum, 480 h, read-out: % activity 20 DAT, post-emergence, solo application, 3.13 g ai/ha", "value": 40, "unit": "%"}, {"measurement": "inhibition at 3.13 g/ha", "setting": "[4]; Chenopodium album, 480 h, read-out: % activity 20 DAT, post-emergence, solo application, 3.13 g ai/ha", "value": 45, "unit": "%"}, {"measurement": "inhibition at 3.13 g/ha", "setting": "Galium aparine (GALAP); read-out: % activity 20 DAT, post-emergence, solo application, 3.13 g ai/ha", "value": 30, "unit": "%"}, {"measurement": "inhibition at 6.25 g/ha", "setting": "Galium aparine (GALAP); read-out: % activity 20 DAT, post-emergence, solo application, 6.25 g ai/ha", "value": 30, "unit": "%"}, {"measurement": "inhibition at 3.13 g/ha", "setting": "[5]", "value": 95, "unit": "%"}, {"measurement": "inhibition at 6.25 g/ha", "setting": "Avena fatua (AVEFA)", "value": 75, "unit": "%"}]}, {"smiles": "CCNc1nc(Cl)nc(NC(C)C)n1", "note": "[atrazin]", "values": [{"measurement": "inhibition at 250 g/ha", "setting": "[1]; Alopecurus myosuroides, 480 h, solo application, 250 g ai/ha, read-out: % activity 20 DAT", "value": 50, "unit": "%"}, {"measurement": "inhibition at 62.5 g/ha", "setting": "[2]; Digitaria sanguinalis, 480 h, solo application, 62.5 g ai/ha, read-out: % activity 20 DAT", "value": 0, "unit": "%"}, {"measurement": "inhibition at 62.5 g/ha", "setting": "[4]; Chenopodium album, 480 h, solo application, 62.5 g ai/ha, read-out: % activity 20 DAT", "value": 20, "unit": "%"}, {"measurement": "inhibition at 125 g/ha", "setting": "[4]; Chenopodium album, 480 h, solo application, 125 g ai/ha, read-out: % activity 20 DAT", "value": 60, "unit": "%"}]}, {"smiles": "COc1c(Cl)ccc(Cl)c1C(=O)O", "note": "[dicamba]", "values": [{"measurement": "inhibition at 25 g/ha", "setting": "[1]; Alopecurus myosuroides, 480 h, solo application, 25 g ai/ha, read-out: % activity 20 DAT", "value": 10, "unit": "%"}, {"measurement": "inhibition at 50 g/ha", "setting": "[6]; Lolium multiflorum, 480 h, solo application, 50 g ai/ha, read-out: % activity 20 DAT", "value": 0, "unit": "%"}, {"measurement": "inhibition at 50 g/ha", "setting": "[3]; Abutilon theophrasti, 480 h, solo application, 50 g ai/ha, read-out: % activity 20 DAT", "value": 50, "unit": "%"}, {"measurement": "inhibition at 50 g/ha", "setting": "[4]; Chenopodium album, 480 h, solo application, 50 g ai/ha, read-out: % activity 20 DAT", "value": 50, "unit": "%"}, {"measurement": "inhibition at 25 g/ha", "setting": "[7]; Matricaria, 480 h, read-out: % activity 20 DAT, post-emergence, solo application, 25 g ai/ha", "value": 45, "unit": "%"}]}, {"smiles": "COC[C@H](C)N(C(=O)CCl)c1c(C)csc1C", "note": "[dimethenamid-P]", "values": [{"measurement": "% activity 20 DAT", "setting": "[1]; solo application, 270 g ai/ha", "value": 20, "unit": "%"}, {"measurement": "% activity 20 DAT", "setting": "[1]; solo application, 540 g ai/ha", "value": 30, "unit": "%"}, {"measurement": "% activity 20 DAT", "setting": "[2]; solo application, 135 g ai/ha", "value": 50, "unit": "%"}, {"measurement": "% activity 20 DAT", "setting": "[2]; solo application, 270 g ai/ha", "value": 50, "unit": "%"}, {"measurement": "% activity 20 DAT", "setting": "[6]; solo application, 135 g ai/ha", "value": 60, "unit": "%"}, {"measurement": "% activity 20 DAT", "setting": "[3]; solo application, 135 g ai/ha", "value": 15, "unit": "%"}, {"measurement": "% activity 20 DAT", "setting": "[3]; solo application, 540 g ai/ha", "value": 15, "unit": "%"}, {"measurement": "% activity 20 DAT", "setting": "[4]; solo application, 270 g ai/ha", "value": 20, "unit": "%"}, {"measurement": "% activity 20 DAT", "setting": "[7]; 135 g ai/ha", "value": 0, "unit": "%"}, {"measurement": "% activity 20 DAT", "setting": "[7]; 270 g ai/ha", "value": 0, "unit": "%"}, {"measurement": "% activity 20 DAT", "setting": "Sinapis arvensis (SINAR)", "value": 45, "unit": "%"}]}]}
